Test results published in ChEMBL document CHEMBL3352622, “Folded structure and insertion depth of the frog-skin antimicrobial Peptide esculentin-1b(1-18) in the presence of differently charged membrane-mimicking micelles” (J Nat Prod, 2014).
Calls of active or inactive are those of the source. The calls are words filed in the database; no cut-off is given here. Where a SMILES comes first, the peptide text is derived from it.

System: Human alphaherpesvirus 1
Test: Antiviral activity against HSV-1 assessed as reduction in infectivity in African green monkey Vero cells after 2 hrs by virus yield reduction assay
Assay type: functional, organism-based

## CC[C@H](C)[C@H](NC(=O)CN)C(=O)N[C@@H](Cc1ccccc1)C(=O)N[C@@H](CO)C(=O)N[C@@H](CCCCN)C(=O)N[C@@H](CC(C)C)C(=O)N[C@@H](C)C(=O)NCC(=O)N[C@@H](CCCCN)C(=O)N[C@@H](CCCCN)C(=O)N[C@@H](CC(C)C)C(=O)N[C@@H](CCCCN)C(=O)N[C@@H](CC(N)=O)C(=O)N[C@@H](CC(C)C)C(=O)N[C@@H](CC(C)C)C(=O)N[C@H](C(=O)N[C@@H](CO)C(=O)NCC(N)=O)[C@@H](C)CC (H-GIFSKLAGKKLKNLLISG-NH2)
  Activity: inactive
